Measured values as given in patent publication US20050197385A1, “Use of rotigotine for treatment or prevention of dopaminergic neuron loss” (Schwarz Pharma AG, priority 2004, published 2005).

Key:
[1] = tested on: MPTP-treated (macaque) monkeys; assay: Progressive MPTP primate model (pilot study); format: in vivo
Experimental: In the model used, which reflects the progressive course of the Parkinson's disease on primates, subliminal toxic doses of MPTP were injected in (macaque) monkeys for several days. The Parkinson symptoms developed in the model in a period of about 2 weeks. As soon as a certain degree of damage was reached, Rotigotine was injected daily in a formulation that built up a continuous plasma level for 24 h. The MPTP injections were stopped as soon as the motor activity was reduced by a certain degree (approx. 5 days later). The behavior of the animals was assessed on a daily basis.
At the end of the Rotigotine injection or washout phase, a group each of animals was killed and the condition of the basal ganglion was examined histologically and biochemically.

[2] = tested on: neurons of the substantia nigra; assay: Acute MPTP model (including apoptosis), FluoroJade stain of degenerating neurons; format: in vivo; conditions: mouse; for Number of degenerating neurons: FluoroJade stain
Experimental: About 16 hours before, Rotigotine is administered in doses of 0.3, 1 or 3 mg/kg each as the so-called ‘Slow-Release-Formulation’. […] After 24 hours the animals are killed and the brains fixed. The brain sections are stained with FluoroJade for identification of degenerated cells. The immunohistochemical marking of tyrosine-hydroxylase served the purpose of identification of dopaminergic neurons.

Parkinson patients = conditions: cited from earlier work
[3] = tested on: dopamine transporter (DAT) in striatum; assay: Subacute MPTP model, [125I]PE2I dopamine transporter binding in striatum sections; format: in vivo; conditions: mouse
Experimental: Groups 1-7 were treated in the following manner: Group 1: Untreated control; Group 2: Control group treated with the excipient solution for Rotigotine and MPTP; Group 3: MPTP treatment; Group 4: MPTP treatment plus Rotigotine 0.3 mg/kg; Group 5: MPTP treatment plus Rotigotine 1.0 mg/kg; Group 6: MPTP treatment plus Rotigotine 3.0 mg/kg; Group 7: Treatment only with Rotigotine (3.0 mg/kg)
For intoxication, mice are administered 80 mg/kg of the neurotoxin 1-methyl-4-phenyl-1,2,3,6-tetrahydro-pyridine (MPTP) (in portions of 20 mg/kg at two-hour intervals, Group 3-6 in FIGS. 1 and 2), leading to a degeneration of the neurons of the substantia nigra of about 50-60% (maximum degeneration in Group 3 in FIGS. 1 and 2). Rotigotine is administered daily in doses of 0.3, 1, or 3 mg/kg each for 7 days in the so-called ‘Slow-Release-Formulation’ (see Working Example 2) (Group 4-6 in FIGS. 1 and 2). A group of MPTP treated animals (Group 3) is given Rotigotine excipient solution (see Working Example 2 without Rotigotine HCl) and serves as reference. […] PE2I ([^125I]-(E)-N(3-iodoprop-2-enyl)-2β-carboxymethyl-3β-(4′-methylphenyl)-nortropane) in phosphate buffer, pH 7.4, in order to mark the quantity of the still present dopamin transporter in striatum and thereby to indicate the quantity of functioning nerve ends.

Parkinson models = conditions: in vivo; cited from earlier work

SMILES | Content of pre-pro-enkephalin ([1]; basal ganglion, after the treatment and the washout phase) | Motor activity of the animals ([1]; daily Rotigotine injection, during the treatment and in the following washout phase) | Density of the nerve endings in the striatum ([1]; end of Rotigotine injection or washout phase, compared to untreated animals) | Number of degenerating neurons ([2]; MPTP excipient + Rotigotine 3.0 mg/kg (Rotigotine alone)) | Number of degenerating neurons ([2]; MPTP intoxication + Rotigotine 0.3 mg/kg) | Number of degenerating neurons ([2]; MPTP intoxication + Rotigotine 1.0 mg/kg) | Number of degenerating neurons ([2]; MPTP intoxication + Rotigotine 3.0 mg/kg) | Staining of tyrosine hydroxylase, treated versus untreated animals ([2]; acute MPTP model, 24 hours after MPTP, immunohistochemistry) | Decrease in the number of degenerated neurons after application of Rotigotine ([2]; acute MPTP model, FluoroJade, versus MPTP alone) | Number of degenerating neurons in the mesencephalon ([2]; acute phase after MPTP) | Dyskinesias (Parkinson-associated motor function disorders) (Parkinson patients; patients with prominent dyskinesias, Metman et al 2001) | UPDRS (Unified Parkinson's Disease Rating Scale) score (Parkinson patients; transdermal administration to Parkinson patients, WO 02/089777) | Survival of the neurons and their nerve ends (dopamine transporter quantity in striatum) ([3]; MPTP 80 mg/kg, Rotigotine 0.3, 1 or 3 mg/kg daily for 7 days, Slow-Release-Formulation) | Dopaminergic innervation of the striatum (dopamine transporter density) ([3]; subacute phase after MPTP) | Activity in Parkinson models (Parkinson models)
CCCN(CCc1cccs1)C1CCc2c(O)cccc2C1 (single isomer, unassigned; (-)) [Rotigotine, (−)-5,6,7,8-Tetrahydro-6-[propyl[2-(2-thienyl)ethyl]amino]-1-naphthol] | tendency toward normalization | clearly improved | significantly increased | 3.8 | 66.7 | 76.8 | 34.9 | does not show any difference | about 50% | reduced | improved | improvement | improves the survival of the neurons and their nerve ends in dependence of the dosage | almost completely preserved or restored | –
CCCN(CCc1cccs1)[C@@H]1CCc2c(O)cccc2C1 [(R)-enantiomer] | – | – | – | – | – | – | – | – | – | – | – | – | – | – | inactive
